{"source": "patent US20110152221A1", "about": "“PAK1 Agonists and Methods of Use” (THE BOARD OF TRUSTEES OF THE UNIVERSITY OF ILLINOIS, priority 2008, published 2011)", "molecules": {"B1": {"name": "Pak1 purified from bovine ventricle muscle (p21 activated kinase-1) (protein)", "chain": "SNNGLDIQDKPPAPPMRNTSTMIGAGSKDAGTLNHGSKPLPPNPEEKKKKDRFYRAILPGDKTNKKKEKERPEISLPSDFEHTIHVGFDAVTGEFTGMPEQWARLLQTSNITKSEQKKNPQAVLDVLEFYNSKKTSNSQKYMSFTDKSAEDYNSSNTLNVKAVSETPAVPPVSEDEDDDDDGTPPPVIAPRPEHTKSVYTRSVIEPLPITPTRDVATSPISPTENNTTPPDALTRNTEKQKKKPKMSDEEILEKLRSIVSVGDPKKKYTRFEKIGQGASGTVYTAMDVATGQEVAIKQMNLQQQPKKELIINEILVMRENKNPNIVNYLDSYLVGDELWVVMEYLAGGSLTDVVTETCMDEGQIAAVCRECLQALEFLHSNQVIHRDIKSDNILLGMDGSVKLTDFGFCAQITPEQSKRSTMVGTPYWMAPEVVTRKAYGPKVDIWSLGIMAIEMIEGEPPYLNENPLRALYLIATNGTPELQNPEKLSAIFRDFLNRCLEMDVEKRGSAKELLQHQFLKIAKPLSSLTPLIAAAKEATKNNH"}}, "key": {"[1]": {"target": "T1, Pak1 purified from cardiac muscle (Bos taurus, UniProt Q08E52)", "T1 construct": "from tissue; host or cells: bovine ventricle (cardiac) muscle", "T1 sequence (Q08E52 whole entry)": "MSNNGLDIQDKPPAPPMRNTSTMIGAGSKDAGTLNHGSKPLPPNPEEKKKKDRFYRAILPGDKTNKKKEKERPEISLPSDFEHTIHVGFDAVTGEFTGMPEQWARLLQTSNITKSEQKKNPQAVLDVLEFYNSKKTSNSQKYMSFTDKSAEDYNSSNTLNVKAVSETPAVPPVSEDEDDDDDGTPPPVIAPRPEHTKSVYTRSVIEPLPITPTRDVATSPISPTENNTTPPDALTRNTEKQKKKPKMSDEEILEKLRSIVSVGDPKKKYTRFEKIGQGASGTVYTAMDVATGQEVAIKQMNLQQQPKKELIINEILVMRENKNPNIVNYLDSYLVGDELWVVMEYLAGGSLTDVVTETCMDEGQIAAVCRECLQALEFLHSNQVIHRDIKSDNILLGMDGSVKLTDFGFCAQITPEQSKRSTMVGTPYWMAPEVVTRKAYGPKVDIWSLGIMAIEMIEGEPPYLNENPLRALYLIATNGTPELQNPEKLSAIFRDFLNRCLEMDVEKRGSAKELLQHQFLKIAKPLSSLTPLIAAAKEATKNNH", "assay": "Pak1 kinase assay (autophosphorylation, [γ32P] ATP, autoradiography)", "type": "biochemical, bovine", "settings": "for autophosphorylation of Pak1: concentration not given", "experimental": "Preparation of Muscle Sample. Frozen bovine ventricle muscle (200 g) was cut into small pieces and homogenized in a blender containing 1 liter homogenization buffer (50 mM Tris base, 5 mM EDTA, 2 mM EGTA, 1 mM DTT, 0.5 mM benzamidine, 0.1 mM PMSF, pH 7.2). The homogenized muscle sample was centrifuged at 4500 g for 30 minutes. The supernatant fraction was saved and precipitated with ammonium sulfate (NH4)2SO4 at concentration 25% and 50% (w/v). Precipitates formed by (NH4)2SO4 addition between concentration 25% (w/v) and 50% (w/v) were saved and dialyzed against the homogenization buffer. After dialysis, the sample was filtered and lyophilized. For purification of Pak1 from smaller amounts of sample, the tissues or cells were homogenized in mammalian extraction buffer (50 mM Tris, pH 7.5; 150 mM NaCl; 0.1% Nonide P40; Complete Protease inhibitor cocktail tablets [Roche Diagnostics, cat # 11 873 580 001]). The ratio of tissue:buffer was about 1:5 (v/v). The homogenate was centrifuged in a bench-top centrifuge at 4° C. The supernatant fraction was saved for direct application onto the affinity column.\nAffinity Chromatography. The column was first washed with 20 ml equilibration buffer (20 mM Tris, pH 7.5; 0.1 M NaCl; 0.1 mM EDTA). Decoy peptide (3 mg) was applied to the column to saturate the matrix with the peptide. The muscle sample (the lyophilized extract) was dissolved in buffer (20 mM Tris, pH 7.5; 0.1 M NaCl; 0.1 mM EDTA) containing protease inhibitor cocktail tablets. The sample was loaded onto the affinity column and then washed with 20 ml washing buffer (20 mM Tris, pH 7.5; 0.1 M NaCl; 0.1 mM EDTA; 0.05% Tween-20). The Pak1 bound to the gel was eluted with equilibration buffer containing HA peptide ([…]) (SEQ ID NO: 2) at 1 mg/ml. HA peptide was removed from the sample by dialysis in buffer containing 20 mM HEPES, 5 mM NaCl, pH 7.2. The bound Pak1 could also be eluted with 5 ml glycine buffer, pH 2.5 (50 mM glycine-HCl; 0.1% Triton X-100; 0.15 M NaCl).\nKinase Assay. Pak1 kinase activity was assayed in the following reaction buffer: 50 mM HEPES, pH 7.3, 10 mM MgCl2, 1 mM DTT, 0.05% Triton X-100) with 10 μCi of [γ32P] ATP (Perkin Elma. [γ-32P]-Adenosine 5′-triphosphate, Specific Activity: 3000 Ci (111TBq)/mmole, 50 mM Tricine (pH 7.6), Concentration: 5 mCi/mL, Catal NEG502H250UC) at 37° C. for 2 h. The kinase reaction was stopped by adding SDS sample buffer followed by boiling for 5 min. In view of reports of sphingosine-1 inducing an increase in Pak1 and Pak2 activity in vitro (Bokoch 1998, p 8137-8144; Roig 2001, p 195-199), the effect of sphingosine and sphingosine-1 phosphate on Pak1 autophosphorylation was also tested (FIG. 3A). The tested agonists (obtained from Calbiochem) included the following: C2 ceramide (N-acetyl-D-erythro-sphingosine), C6 ceramide (N-Hexanoyl-D-erythro-sphingosine) and safingol (Dihydro-L-threo-sphingosine). D-sphingosine (S 6879) and sphingosine 1-phosphate (S 9666) were purchased from Sigma. Sphingosines were dissolved in DMSO. The total reaction volume was 20 μl. DMSO (2 μl) was included in each reaction including the control. Incorporation of 32P from gamma 32P into Pak1 was directly detected by autoradiography after resolve the in vitro reaction products on SDS PAGE. […] When the sphingosine phosphate concentration increased to 100 and 200 μM, there was an increase in Pak1 autophosphorylation. In purified Pak1 sample, a 48 kD Pak1 degradation products can sometimes be detected (FIG. 1A, lane 3). When Pak1 activity increased, phosphorylation of the degradation products increased accordingly (FIG. 3).\nAutophosphorylation of Pak1, which correlates with its activity, provided a measure of Pak-1 enzyme function. […] In all the in vitro assays, we used 4 μg of Pak1 protein. The smaller band (˜48 kD) that could be Pak1 degradation products was also phosphorylated. […] The decoy peptide contains Pak1 autophosphorylation sites. […]"}, "PP2A": {"system": "PP2A", "settings": "Dobrowsky 1993; cited from earlier work"}, "L-type Ca2+ channel": {"system": "L-type Ca2+ channel", "settings": "different types of cells; Chik 1999, 2004; cited from earlier work"}, "[2]": {"system": "cardiac troponin in cardiomyocytes / ventricle myocytes", "assay": "Dephosphorylation of cardiac troponin in cardiomyocytes", "type": "cell-based", "from_the_text": "FTY720 is a structural analogue of sphingosine-1 and C2/C6-ceramide. […] Therefore, like C2- and C6-ceramides, FTY720 can serve as a β-blocker competitor for ischemic heart diseases including angina and systolic heart failure. The anti-(β) adrenergic effect of FTY720 is through activation of Pak1 in the heart. Our current observation further enforced by our previous work on Pak1 function related to heart diseases. Our studies also indicate that even better drug candidates can be designed or screened by testing their effects on Pak1 activation or inhibition using C2/C6 ceramides and FTY720 as prototypes."}, "T-cells": {"system": "T-cells", "settings": "O'Byrne 2000; cited from earlier work"}, "heart": {"system": "heart", "settings": "Furuya 2001; Lecour 2006; cited from earlier work"}, "heart rate": {"system": "heart rate", "settings": "same or lower dose than used in clinical studies for organ transplantation and multiple sclerosis; cited from earlier work"}, "[3]": {"target": "T2, decoy peptide (YNSKKTSNSQKYMSFTDKSA) (amino acids 131-150 of SEQ ID NO: 1)", "T2 chain": "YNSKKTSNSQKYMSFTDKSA"}}}
{"molecule": "YNSKKTSNSQKYMSFTDKSA [decoy peptide]", "values": [{"measurement": "autophosphorylation of Pak1", "setting": "[1]; 37° C., 2 h", "result": "slightly inhibited"}, {"measurement": "total kinase activity in the presence of the decoy peptide", "setting": "[1]; data not shown", "result": "slight increase"}]}
{"molecule": "CCCCCCCCCCCCC/C=C/[C@@H](O)[C@@H](N)CO", "note": "[D-Sphingosine-1, D-erythro-sphingosine]", "values": [{"measurement": "Autophosphorylation of the purified Pak1", "setting": "[1]; in the presence of 50 and 100 μM, 37° C., 2 h", "result": "increased"}]}
{"molecule": "CCCCCCCCCCCCC/C=C/[C@@H](O)[C@H](CO)NC(C)=O", "note": "[C2 ceramide, N-acetyl-D-erythro-sphingosine]", "values": [{"measurement": "PP2A activation", "setting": "PP2A", "result": "known activator"}, {"measurement": "L-type Ca2+ channel activity", "setting": "L-type Ca2+ channel", "result": "depressed"}, {"measurement": "dephosphorylation of cardiac troponin in cardiomyocytes", "setting": "[2]", "result": "induces dephosphorylation"}, {"measurement": "effect activating Pak1 compared with sphingosine-1", "setting": "[1]", "result": "stronger effect than sphingosine-1"}, {"measurement": "autophosphorylation of Pak1", "setting": "[1]; 37° C., 2 h", "result": "highly responsive"}, {"measurement": "proliferation of T-cells stimulated by growth signals", "setting": "T-cells", "result": "inhibited proliferation"}, {"measurement": "pre-conditioning effects in heart", "setting": "heart", "result": "pre-conditioning effects"}]}
{"molecule": "CCCCCCCCCCCCCCC[C@H](O)[C@@H](N)CO", "note": "[saphingol, Dihydro-L-threo-sphingosine]", "values": [{"measurement": "autophosphorylation of Pak1", "setting": "[1]; 37° C., 2 h", "result": "only slightly regulated"}, {"measurement": "autophosphorylation of Pak1", "setting": "[1]; 37° C., 2 h, listed as Saphingosine", "result": "small stimulatory effect"}]}
{"molecule": "CCCCCCCCc1ccc(CCC(N)(CO)CO)cc1", "note": "[FTY720, fingolimod]", "values": [{"measurement": "cardiac effect (heart rate)", "setting": "heart rate", "result": "decrease of heart rate"}]}
{"molecule": "CCCCCCCCCCCCC/C=C/[C@@H](O)[C@H](CO)NC(=O)CCCCC", "note": "[C6 ceramide, N-Hexanoyl-D-erythro-sphingosine]", "values": [{"measurement": "dephosphorylation of cardiac troponin in cardiomyocytes", "setting": "[2]", "result": "induces dephosphorylation"}, {"measurement": "effect activating Pak1 compared with sphingosine-1", "setting": "[1]", "result": "stronger effect than sphingosine-1"}, {"measurement": "autophosphorylation of Pak1", "setting": "[1]; 37° C., 2 h", "result": "highly responsive"}]}
{"molecule": "CCCCCCCCCCCCC/C=C/[C@@H](O)[C@@H](N)COP(=O)(O)O", "note": "[sphingosine-1 phosphate, sphingosine 1-phosphate]", "values": [{"measurement": "effect on autophosphorylation of Pak1", "setting": "[1]; at 25 and 50 μM, 37° C., 2 h", "result": "no significant effect"}, {"measurement": "Pak1 autophosphorylation", "setting": "[1]; at 100 and 200 μM, 37° C., 2 h", "result": "increase"}]}
{"molecule": "B1", "values": [{"measurement": "autophosphorylation of Pak1", "setting": "[3]", "result": "The decoy peptide slightly inhibited autophosphorylation of Pak1"}]}
